Laboratory results reported in US9504669B2, “Spliceostatin analogs and methods for their preparation” (PFIZER INC., priority 2012, dated 2016).

What was measured:
Assay type in all cases: cell-based
[1] = test system: MDA-MB-468 cells (target non-expressing); assay: In vitro cell assay (MTS cell viability), MDA-MB-468; details: Homo sapiens, MDA-MB-468, 96 h, read-out: MDA-MB-468 IC50 (nM)
Experimental: Target expressing (BT474 (breast cancer), N87 (gastric cancer), HCC1954 (breast cancer), MDA-MB-361-DYT2 (breast cancer)) or non-expressing (MDA-MB-468) cells were seeded in 96-well cell culture plates for 24 hours before treatment. Cells were treated with 3-fold serially diluted antibody-drug conjugates or free compounds (i.e., no antibody conjugated to the drug) in duplicate at 10 concentrations. Cell viability was determined by CellTiter 96® AQueous One Solution Cell Proliferation MTS Assay (Promega, Madison Wis.) 96 hours after treatment. Relative cell viability was determined as percentage of untreated control. IC50 values were calculated using a four parameter logistic model #203 with XLfit v4.2 (IDBS, Guildford, Surry, UK). The potency ranged upward from 0.0002 nm. Similar procedures and techniques were employed.

[2] = test system: BT474 (breast cancer) cells; assay: In vitro cell assay (MTS cell viability), BT474; details: Homo sapiens, BT-474; free compounds (natural products and synthetic analogs); cell viability 96 hours after treatment
In short: (§1)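 Cells seeded 24 h, then treated with antibody-drug conjugates or free drug, 3-fold serial dilutions at 10 concentrations in duplicate. Viability by MTS at 96 h as percent of untreated control; IC50 from four-parameter logistic fit.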

[3] = test system: MDA-MB-361-DYT2 (breast cancer) cells; assay: In vitro cell assay (MTS cell viability), MDA-MB-361-DYT2; details: 96 h, free compounds (natural products and synthetic analogs); cell viability 96 hours after treatment
In short: as §1

[4] = test system: N87 (gastric cancer) cells; assay: In vitro cell assay (MTS cell viability), N87; details: 96 h, free compounds (natural products and synthetic analogs); cell viability 96 hours after treatment
In short: as §1

| SMILES | IC50 [1] | IC50 [2] | IC50 [3] | IC50 [4] |
| --- | --- | --- | --- | --- |
| CC(/C=C/[C@H]1O[C@H](CC(=O)O)C[C@@]2(CO2)[C@@H]1O)=C\C[C@@H]1O[C@H](C)[C@H](NC(=O)/C=C\[C@H](C)O)C[C@@H]1C [#B4, [(3R,5S,7R,8R)-8-hydroxy-7-{(1E,3E)-5-[(2S,3S,5R,6R)-5-{[(2Z,4S)-4-hydroxypent-2-enoyl]amino}-3,6-dimethyltetrahydro-2H-pyran-2-yl]-3-methylpenta-1,3-dien-1-yl}-1,6-dioxaspiro[2.5]oct-5-yl]acetic acid] | > 100 nM | > 100 nM | > 100 nM | > 100 nM |
| CC(=O)O[C@@H](C)/C=C\C(=O)N[C@@H]1C[C@H](C)[C@H](C/C=C(C)/C=C/[C@H]2O[C@H](CC(=O)NN)C[C@@]3(CO3)[C@@H]2O)O[C@@H]1C [#B6, (2S,3Z)-5-{[(2R,3R,5S,6S)-6-{(2E,4E)-5-[(3R,4R,5R,7S)-7-(2-hydrazinyl-2-oxoethyl)-4-hydroxy-1,6-dioxaspiro[2.5]oct-5-yl]-3-methylpenta-2,4-dien-1-yl}-2,5-dimethyltetrahydro-2H-pyran-3-yl]amino}-5-oxopent-3-en-2-yl acetate] | 7.97 nM | 16.5 nM | 25.4 nM | 5.66 nM |
| CC(=O)O[C@@H](C)/C=C\C(=O)N[C@@H]1C[C@H](C)[C@H](C/C=C(C)/C=C/[C@@H]2C[C@]3(CO3)C[C@@H](CC(N)=O)O2)O[C@@H]1C [#B15, (2S,3Z)-5-{[(2R,3R,5S,6S)-6-{(2E,4E)-5-[(3S,5S,7S)-7-(2-amino-2-oxoethyl)-1,6-dioxaspiro[2.5]oct-5-yl]-3-methylpenta-2,4-dien-1-yl}-2,5-dimethyltetrahydro-2H-pyran-3-yl]amino}-5-oxopent-3-en-2-yl acetate] | 0.363 nM | 0.522 nM | 0.537 nM | 0.203 nM |
| CC(/C=C/[C@@H]1C[C@]2(CO2)C[C@@H](CC(=O)O)O1)=C\C[C@@H]1O[C@H](C)[C@H](NC(=O)/C=C\[C@H](C)O)C[C@@H]1C [#B16, [(3S,5S,7S)-7-{(1E,3E)-5-[(2S,3S,5R,6R)-5-{[(2Z,4S)-4-hydroxypent-2-enoyl]amino}-3,6-dimethyltetrahydro-2H-pyran-2-yl]-3-methylpenta-1,3-dien-1-yl}-1,6-dioxaspiro[2.5]oct-5-yl]acetic acid] | 36.8 nM | 76.1 nM | > 100 nM | 16.8 nM |
| CCCNC(=O)C[C@@H]1C[C@@]2(CO2)[C@H](O)[C@@H](/C=C/C(C)=C/C[C@@H]2O[C@H](C)[C@H](NC(=O)/C=C\[C@H](C)OC(C)=O)C[C@@H]2C)O1 [#B63, (2S,3Z)-5-({(2R,3R,5S,6S)-6-[(2E,4E)-5-{(3R,4R,5R,7S)-4-hydroxy-7-[2-oxo-2-(propylamino)ethyl]-1,6-dioxaspiro[2.5]oct-5-yl}-3-methylpenta-2,4-dien-1-yl]-2,5-dimethyltetrahydro-2H-pyran-3-yl}amino)-5-oxopent-3-en-2-yl acetate] | 0.348 nM | 0.651 nM | 0.293 nM | 1.1 nM |
| CC(=O)O[C@@H](C)/C=C\C(=O)N[C@@H]1C[C@H](C)[C@H](C/C=C(C)/C=C/[C@H]2O[C@H](CC(=O)N[C@H]3C[C@H](N)C3)C[C@@]3(CO3)[C@@H]2O)O[C@@H]1C [#B73, (2S,3Z)-5-{[(2R,3R,5S,6S)-6-{(2E,4E)-5-[(3R,4R,5R,7S)-7-{2-[(trans-3-aminocyclobutyl)amino]-2-oxoethyl}-4-hydroxy-1,6-dioxaspiro[2.5]oct-5-yl]-3-methylpenta-2,4-dien-1-yl}-2,5-dimethyltetrahydro-2H-pyran-3-yl]amino}-5-oxopent-3-en-2-yl acetate] | 276 nM | 296 nM | 443 nM | 174 nM |
| CC(=O)O[C@@H](C)/C=C\C(=O)N[C@@H]1C[C@H](C)[C@H](C/C=C(C)/C=C/[C@H]2O[C@H](CC(=O)N[C@H]3CC[C@H](N)CC3)C[C@@]3(CO3)[C@@H]2O)O[C@@H]1C [#B76, (2S,3Z)-5-{[(2R,3R,5S,6S)-6-{(2E,4E)-5-[(3R,4R,5R,7S)-7-{2-[(trans-4-aminocyclohexyl)amino]-2-oxoethyl}-4-hydroxy-1,6-dioxaspiro[2.5]oct-5-yl]-3-methylpenta-2,4-dien-1-yl}-2,5-dimethyltetrahydro-2H-pyran-3-yl]amino}-5-oxopent-3-en-2-yl acetate] | 272 nM | 341 nM | 885 nM | 331 nM |
| CC(=O)O[C@@H](C)/C=C\C(=O)N[C@@H]1C[C@H](C)[C@H](C/C=C(C)/C=C/[C@H]2O[C@H](CC(=O)O)C[C@@](O)(CCl)[C@@H]2O)O[C@@H]1C [#NP5, (5R)-5-{(1E,3E)-5-[(2S,3S,5R,6R)-5-{[(2Z,4S)-4-(acetyloxy)pent-2-enoyl]amino}-3,6-dimethyltetrahydro-2H-pyran-2-yl]-3-methylpenta-1,3-dien-1-yl}-1,5-anhydro-1-(carboxymethyl)-3-C-(chloromethyl)-2-deoxypentitol] | > 100 nM | > 100 nM | – | > 100 nM |
| CC(=O)O[C@@H](C)/C=C\C(=O)N[C@@H]1C[C@H](C)[C@H](C/C=C(C)/C=C/[C@H]2OC(C)(O)C(O)C(O)(CO)C2O)O[C@@H]1C (stereo partly drawn) [#NP6, (6R)-6-{(1E,3E)-5-[(2S,3S,5R,6R)-5-{[(2Z,4S)-4-(acetyloxy)pent-2-enoyl]amino}-3,6-dimethyltetrahydro-2H-pyran-2-yl]-3-methylpenta-1,3-dien-1-yl}-1-deoxy-4-C-(hydroxymethyl)hex-2-ulopyranose] | > 100 nM | > 100 nM | – | > 100 nM |
| CC(=O)OCC1(O)CC(/C=C/C(C)=C/C[C@@H]2O[C@H](C)[C@H](NC(=O)/C=C\[C@H](C)OC(C)=O)C[C@@H]2C)OC(CC(=O)O)C1 (stereo partly drawn) [#NP7, (4-[(acetyloxy)methyl]-6-{(1E,3E)-5-[(2S,3S,5R,6R)-5-{[(2Z,4S)-4-(acetyloxy)pent-2-enoyl]amino}-3,6-dimethyltetrahydro-2H-pyran-2-yl]-3-methylpenta-1,3-dien-1-yl}-4-hydroxytetrahydro-2H-pyran-2-yl)acetic acid] | > 100 nM | > 100 nM | – | > 100 nM |
| CC(=O)O[C@@H](C)/C=C\C(=O)N[C@@H]1C[C@H](C)[C@H](C/C=C(C)/C=C/C2CC(O)(CCl)CC(CC(=O)O)O2)O[C@@H]1C (stereo partly drawn) [#NP8, [6-{(1E,3E)-5-[(2S,3S,5R,6R)-5-{[(2Z,4S)-4-(acetyloxy)pent-2-enoyl]amino}-3,6-dimethyltetrahydro-2H-pyran-2-yl]-3-methylpenta-1,3-dien-1-yl}-4-(chloromethyl)-4-hydroxytetrahydro-2H-pyran-2-yl]acetic acid] | 1.35 nM | 1.94 nM | – | 0.643 nM |
| CC(=O)OCC1(O)C(O)C(/C=C/C(C)=C/C[C@@H]2O[C@H](C)[C@H](NC(=O)/C=C\[C@H](C)OC(C)=O)C[C@@H]2C)OC(C)(O)C1O (stereo partly drawn) [#NP9, 4-C-[(acetyloxy)methyl]-6-{(1E,3E)-5-[(2S,3S,5R,6R)-5-{[(2Z,4S)-4-(acetyloxy)pent-2-enoyl]amino}-3,6-dimethyltetrahydro-2H-pyran-2-yl]-3-methylpenta-1,3-dien-1-yl}-1-deoxyhex-2-ulopyranose] | 59.2 nM | 65.8 nM | – | 74.3 nM |
